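How tested: cells in 96-well plates exposed to compound for 48 hours at five concentrations. TGI: concentration producing complete growth inhibition.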
Tests used:
Assay in all cases: NCI-60 cell line screen, 48 h
786-0 renal = test system: 786-0 renal
A498 renal = test system: A498 renal
A549 NSCLC = test system: A549 NSCLC
ACHN renal = test system: ACHN renal
BT-549 breast = test system: BT-549 breast
CAKI-1 renal = test system: CAKI-1 renal
CCRF-CEM leukemia = test system: CCRF-CEM leukemia
COLO 205 colon = test system: COLO 205 colon
DU-145 prostate = test system: DU-145 prostate
EKVX NSCLC = test system: EKVX NSCLC
HCC-2998 colon = test system: HCC-2998 colon
HCT-116 colon = test system: HCT-116 colon
HCT-15 colon = test system: HCT-15 colon
HL-60(TB) leukemia = test system: HL-60(TB) leukemia
HOP-62 NSCLC = test system: HOP-62 NSCLC
HOP-92 NSCLC = test system: HOP-92 NSCLC
HS 578T breast = test system: HS 578T breast
HT29 colon = test system: HT29 colon
IGROV1 ovarian = test system: IGROV1 ovarian
K-562 leukemia = test system: K-562 leukemia
KM12 colon = test system: KM12 colon
LOX IMVI melanoma = test system: LOX IMVI melanoma
M14 melanoma = test system: M14 melanoma
MALME-3M melanoma = test system: MALME-3M melanoma
MCF7 breast = test system: MCF7 breast
MDA-MB-231 breast = test system: MDA-MB-231 breast
MDA-MB-435 = test system: MDA-MB-435
MDA-N = test system: MDA-N
MOLT-4 leukemia = test system: MOLT-4 leukemia
NCI-H23 lung = test system: NCI-H23 lung
NCI-H460 lung = test system: NCI-H460 lung
NCI-H522 lung = test system: NCI-H522 lung
NCI/ADR-RES ovarian = test system: NCI/ADR-RES ovarian
OVCAR-3 ovarian = test system: OVCAR-3 ovarian
OVCAR-5 ovarian = test system: OVCAR-5 ovarian
OVCAR-8 ovarian = test system: OVCAR-8 ovarian
PC-3 prostate = test system: PC-3 prostate
RPMI-8226 leukemia = test system: RPMI-8226 leukemia
RXF 393 renal = test system: RXF 393 renal
SF-268 CNS = test system: SF-268 CNS
SF-295 CNS = test system: SF-295 CNS
SF-539 CNS = test system: SF-539 CNS
SK-MEL-2 melanoma = test system: SK-MEL-2 melanoma
SK-MEL-28 melanoma = test system: SK-MEL-28 melanoma
SK-MEL-5 melanoma = test system: SK-MEL-5 melanoma
SK-OV-3 ovarian = test system: SK-OV-3 ovarian
SN12C renal = test system: SN12C renal
SNB-19 CNS = test system: SNB-19 CNS
SNB-75 CNS = test system: SNB-75 CNS
SR leukemia = test system: SR leukemia
SW-620 colon = test system: SW-620 colon
T-47D breast = test system: T-47D breast
TK-10 renal = test system: TK-10 renal
U251 CNS = test system: U251 CNS
UACC-257 melanoma = test system: UACC-257 melanoma
UACC-62 melanoma = test system: UACC-62 melanoma
UO-31 renal = test system: UO-31 renal
NCI-H226 lung = test system: NCI-H226 lung
OVCAR-4 ovarian = test system: OVCAR-4 ovarian

In the case of `CO[C@]12S[C@@H]3CCCC[C@@]31C(C)(C)C(=O)N2c1ccccc1`, the TGI (786-0 renal) is reported as over 100 µM, the TGI (A498 renal) is reported as over 100 µM and the TGI (A549 NSCLC) is reported as over 100 µM. For the same compound, the TGI (ACHN renal) was over 100 µM, the TGI (BT-549 breast) was over 100 µM and the TGI (CAKI-1 renal) was over 100 µM. It also gave a TGI (CCRF-CEM leukemia) of over 100 µM, a TGI (COLO 205 colon) of 44 µM and a TGI (DU-145 prostate) of over 100 µM. For the same compound, the TGI (EKVX NSCLC) was over 100 µM, the TGI (HCC-2998 colon) was over 100 µM and the TGI (HCT-116 colon) was over 100 µM. It also gave a TGI (HCT-15 colon) of over 100 µM, a TGI (HL-60(TB) leukemia) of 42.5 µM and a TGI (HOP-62 NSCLC) of 53.5 µM. For the same compound, the TGI (HOP-92 NSCLC) was over 100 µM, the TGI (HS 578T breast) was over 100 µM and the TGI (HT29 colon) was over 100 µM. For the same compound, the TGI (IGROV1 ovarian) was over 100 µM, the TGI (K-562 leukemia) was over 100 µM and the TGI (KM12 colon) was over 100 µM. For the same compound, the TGI (LOX IMVI melanoma) was over 100 µM, the TGI (M14 melanoma) was over 100 µM and the TGI (MALME-3M melanoma) was over 100 µM. The TGI (MCF7 breast) was over 100 µM, the TGI (MDA-MB-231 breast) was over 100 µM and the TGI (MDA-MB-435) was over 100 µM. The TGI (MDA-N) was over 100 µM, the TGI (MOLT-4 leukemia) was 78.2 µM and the TGI (NCI-H23 lung) was over 100 µM. For the same compound, the TGI (NCI-H460 lung) was over 100 µM, the TGI (NCI-H522 lung) was over 100 µM and the TGI (NCI/ADR-RES ovarian) was 78.8 µM. The TGI (OVCAR-3 ovarian) was 38.5 µM, the TGI (OVCAR-5 ovarian) was over 100 µM and the TGI (OVCAR-8 ovarian) was over 100 µM. It also gave a TGI (PC-3 prostate) of 96.7 µM, a TGI (RPMI-8226 leukemia) of 73 µM and a TGI (RXF 393 renal) of over 100 µM. The TGI (SF-268 CNS) was over 100 µM, the TGI (SF-295 CNS) was 51.1 µM and the TGI (SF-539 CNS) was 28.6 µM. The TGI (SK-MEL-2 melanoma) was 95.5 µM, the TGI (SK-MEL-28 melanoma) was over 100 µM and the TGI (SK-MEL-5 melanoma) was 43.3 µM. For the same compound, the TGI (SK-OV-3 ovarian) was 76.8 µM, the TGI (SN12C renal) was 56.7 µM and the TGI (SNB-19 CNS) was over 100 µM. The TGI (SNB-75 CNS) was over 100 µM, the TGI (SR leukemia) was over 100 µM and the TGI (SW-620 colon) was over 100 µM. It also gave a TGI (T-47D breast) of over 100 µM, a TGI (TK-10 renal) of over 100 µM and a TGI (U251 CNS) of over 100 µM. The TGI (UACC-257 melanoma) was over 100 µM, the TGI (UACC-62 melanoma) was over 100 µM and the TGI (UO-31 renal) was over 100 µM.

Work on `OCCCCn1cc(Cn2ncc3c(NCc4ccccc4)ncnc32)nn1` yielded a TGI (786-0 renal) of over 100 µM, a TGI (A498 renal) of over 100 µM and a TGI (A549 NSCLC) of over 100 µM. The TGI (ACHN renal) was over 100 µM, the TGI (BT-549 breast) was over 100 µM and the TGI (CAKI-1 renal) was over 100 µM. For the same compound, the TGI (CCRF-CEM leukemia) was over 100 µM, the TGI (COLO 205 colon) was over 100 µM and the TGI (DU-145 prostate) was over 100 µM. It also gave a TGI (EKVX NSCLC) of over 100 µM, a TGI (HCC-2998 colon) of over 100 µM and a TGI (HCT-116 colon) of over 100 µM. The TGI (HCT-15 colon) was over 100 µM, the TGI (HOP-62 NSCLC) was over 100 µM and the TGI (HOP-92 NSCLC) was over 100 µM. The TGI (HS 578T breast) was over 100 µM, the TGI (HT29 colon) was over 100 µM and the TGI (IGROV1 ovarian) was over 100 µM. It also gave a TGI (K-562 leukemia) of over 100 µM, a TGI (KM12 colon) of over 100 µM and a TGI (LOX IMVI melanoma) of over 100 µM. For the same compound, the TGI (M14 melanoma) was over 100 µM, the TGI (MALME-3M melanoma) was over 100 µM and the TGI (MCF7 breast) was over 100 µM. It also gave a TGI (MDA-MB-231 breast) of over 100 µM, a TGI (MDA-MB-435) of over 100 µM and a TGI (MDA-N) of over 100 µM. It also gave a TGI (MOLT-4 leukemia) of over 100 µM, a TGI (NCI-H226 lung) of over 100 µM and a TGI (NCI-H23 lung) of over 100 µM. The TGI (NCI-H460 lung) was over 100 µM, the TGI (NCI-H522 lung) was over 100 µM and the TGI (NCI/ADR-RES ovarian) was over 100 µM. For the same compound, the TGI (OVCAR-3 ovarian) was over 100 µM, the TGI (OVCAR-4 ovarian) was over 100 µM and the TGI (OVCAR-5 ovarian) was over 100 µM. It also gave a TGI (OVCAR-8 ovarian) of over 100 µM, a TGI (PC-3 prostate) of over 100 µM and a TGI (RPMI-8226 leukemia) of over 100 µM. It also gave a TGI (RXF 393 renal) of over 100 µM, a TGI (SF-268 CNS) of over 100 µM and a TGI (SF-295 CNS) of over 100 µM. The TGI (SF-539 CNS) was over 100 µM, the TGI (SK-MEL-2 melanoma) was over 100 µM and the TGI (SK-MEL-28 melanoma) was over 100 µM. For the same compound, the TGI (SK-MEL-5 melanoma) was over 100 µM, the TGI (SK-OV-3 ovarian) was over 100 µM and the TGI (SN12C renal) was over 100 µM. For the same compound, the TGI (SNB-19 CNS) was over 100 µM, the TGI (SR leukemia) was over 100 µM and the TGI (SW-620 colon) was over 100 µM. For the same compound, the TGI (T-47D breast) was over 100 µM, the TGI (TK-10 renal) was over 100 µM and the TGI (U251 CNS) was over 100 µM. The TGI (UACC-257 melanoma) was over 100 µM, the TGI (UACC-62 melanoma) was over 100 µM and the TGI (UO-31 renal) was over 100 µM.
